Measured values from patent publication US11141450B2, “Compositions for reducing appetite and craving, increasing satiety, enhancing mood, and reducing stress” (NEKTIUM PHARMA, S.L., priority 2017, dated 2021).

Columns and labels:
Fisher 344 rats [1] = assay: EEG signals by telemetry from implanted electrodes in freely moving rats, Example 1; type: in vivo; details: first hour; all brain areas; p<0.01 relative to pre-drug baseline for the reference drugs; Rimonabant 5 mg/kg, Methylphenidate 1.0 mg/kg, Selegiline 1.5 mg/kg; FIG. 1
Excerpt: Fisher 344 rats (11 months of age and day-night converted, weight about 350-400 g, provided by Charles River Laboratories, D-97633, Sulzfeld) were used in a series of experiments on the effects of various herbal and pharmaceutical products on central nervous system activity. Products were provided to the test subjects orally (gavage).
The substances tested in this study included: • A control vehicle (0.9% NaCl); • Cyperus esculentus tuberous rhizome, ethanol extract, administered in an amount of 200 mg/kg to 7 rats; • Mango leaf, ethanol extract, administered in an amount of 50 mg/kg to 7 rats; • Cyperus Esculentus tuberous rhizome peel, ethanol extract, 150 mg/kg, plus Mango leaf extract, containing 60% of Mangiferin, 50 mg/kg, administered to 5 rats • Selegiline, administered in amount of 1.5 mg/kg to 8 rats • Methylphenidate administered in an amount of 1.0 mg/kg to 8 rats • Rimonabant administered in amount of 5 mg/kg to 6 rats
EEG signals were recorded by telemetry from 4 implanted electrodes in the frontal cortex, hippocampus and striatum of freely moving rats from inside a totally copper shielded room. Signals were collected in sweeps of 4-second duration and Fast Fourier transformed using a Hanning window. EEG signals were recorded over a period starting 5 minutes after administration of the test substances, and ending 65 minutes after administration of the test substances. Sampling frequency was 512 Hz. […] In an off-line procedure, the spectra were averaged to give longer periods for further analysis and data presentation. Spectral activity within the frontal cortex, hippocampus, striatum and reticular formation was recorded.

Fisher 344 rats [2] = assay: EEG signals by telemetry from implanted electrodes in freely moving rats, first hour and fifth hour, Example 2; type: in vivo; details: first hour after administration and 5 hours after administration
Description: Products were provided to the test subjects orally (gavage).
EEG signals were recorded by telemetry from 4 implanted electrodes in the frontal cortex, hippocampus and striatum of freely moving rats from inside a totally copper shielded room.

SMILES	effect on alpha-2 waves (Fisher 344 rats [1])	impact on alpha-1 brain wave activity in the hippocampus (Fisher 344 rats [2])
COC(=O)C(c1ccccc1)C1CCCCN1 (stereo not shown) [Methylphenidate]	main significant effect	
Cc1c(C(=O)NN2CCCCC2)nn(-c2ccc(Cl)cc2Cl)c1-c1ccc(Cl)cc1 [Rimonabant]	main significant effect	
C#CCN(C)[C@H](C)Cc1ccccc1 [Selegiline]	main significant effect	
O=c1c2cc(O)c(O)cc2oc2cc(O)c([C@@H]3O[C@H](CO)[C@@H](O)[C@H](O)[C@H]3O)c(O)c12 [pure Mangiferin, Mangiferin]		Neither Tigernut extract nor Mango leaf extract (60% Mangiferin) or pure Mangiferin administered alone showed a significant decrease of alpha-1 brain wave activity
